In patent US9075070B2, “HTS fluorescence polarization assay for inhibitors of Keap1-Nrf2 interaction” (RUTGERS, THE STATE UNIVERSITY OF NEW JERSEY, priority 2011, dated 2015):

Target: human Keap1 Kelch domain (Homo sapiens, UniProt Q14145)
Assay: FP binding assay: titration of fluorescently labeled Nrf2 peptide probes with Keap1 Kelch domain
Details: difference in the free and the bound anisotropy of the FITC-labeled peptide

Sequence of human Keap1 Kelch domain (Q14145 with tags, fused parts or gaps): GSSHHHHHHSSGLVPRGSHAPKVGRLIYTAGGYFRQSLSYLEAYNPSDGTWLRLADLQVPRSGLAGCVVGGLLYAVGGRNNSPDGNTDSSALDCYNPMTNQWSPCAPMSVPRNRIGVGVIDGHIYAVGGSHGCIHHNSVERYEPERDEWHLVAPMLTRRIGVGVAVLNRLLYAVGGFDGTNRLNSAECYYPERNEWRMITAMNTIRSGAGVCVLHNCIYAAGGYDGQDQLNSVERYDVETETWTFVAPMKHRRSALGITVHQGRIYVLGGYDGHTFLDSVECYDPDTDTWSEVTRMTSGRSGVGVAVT

Compound: CC(C)C[C@H](NC(=O)[C@H](Cc1ccccc1)NC(=O)[C@H](CCC(=O)O)NC(=O)CNC(=O)[C@@H](NC(=O)[C@H](CCC(=O)O)NC(=O)[C@H](CCC(=O)O)NC(=O)[C@H](CC(=O)O)NC(=O)[C@H](CC(C)C)NC(=O)[C@H](CCC(N)=O)NC(=O)[C@H](CC(C)C)NC(=O)[C@H](CCC(N)=O)NC(=O)[C@H](C)NC(=O)[C@H](Cc1ccccc1)NC(=S)Nc1ccc2c(c1)C(=O)OC21c2ccc(O)cc2Oc2cc(O)ccc21)[C@@H](C)O)C(=O)O [FITC-14mer Nrf2]
- Dynamic Range (ΔmA): 64.2 mA
